Laboratory results from publication PMC12396409, “Screening and hit evaluation of a microbial metabolite library against the pathogenic Plasmodium falciparum and Toxoplasma gondii parasites” (International Journal for Parasitology: Drugs and Drug …, 2025).
Like-named read-outs stand apart in the source and are kept apart here.

Experiments:
[1] = tested on: P. falciparum 3D7 parasites; assay: P. falciparum growth inhibition assay, 1-cycle (72 h treatment), SYBR DNA staining (library screen at 2 μg/mL and dose-response); type: cell-based, Plasmodium falciparum; details: for activity at 2 µg/mL: Plasmodium falciparum
[2] = tested on: T. gondii RH strain (RH-Tub-eYFP) tachyzoites; assay: microbe, parasite or virus in culture; type: cell-based, Toxoplasma gondii; details: 72 h; for percent parasite growth at 2 µg/mL: Toxoplasma gondii
[3] = tested on: P. falciparum 3D7 parasites; assay: P. falciparum growth inhibition assay, 2-cycle (120 h treatment), delayed-death screen and dose-response; type: cell-based, Plasmodium falciparum; details: for activity at 2 µg/mL: Plasmodium falciparum
[4] = library screen at 2 μg/mL, 72 h, % growth, replicate 1
[5] = library screen at 2 μg/mL, 72 h, % growth, replicate 2
[6] = library screen at 2 μg/mL, % growth, replicate 1
[7] = library screen at 2 μg/mL, % growth, replicate 2
[8] = library screen at 2 μg/mL, 120 h, % growth, replicate 1
[9] = library screen at 2 μg/mL, 120 h, % growth, replicate 2
[10] = P. falciparum 3D7, 72 h, parasite screen at 2 μg/mL, % growth, replicate 1
[11] = P. falciparum 3D7, 72 h, parasite screen at 2 μg/mL, % growth, replicate 2
[12] = T. gondii, parasite screen at 2 μg/mL, % growth, replicate 1
[13] = T. gondii, parasite screen at 2 μg/mL, % growth, replicate 2
[14] = P. falciparum 3D7, 120 h, parasite screen at 2 μg/mL, % growth, replicate 1
[15] = P. falciparum 3D7, 120 h, parasite screen at 2 μg/mL, % growth, replicate 2
[16] = P. falciparum, 72 h, parasite screen 2 μg/mL, % growth, replicate 1
[17] = P. falciparum, 72 h, parasite screen 2 μg/mL, % growth, replicate 2
[18] = T. gondii, parasite screen 2 μg/mL, % growth, replicate 1
[19] = T. gondii, parasite screen 2 μg/mL, % growth, replicate 2
[20] = P. falciparum, 120 h, parasite screen 2 μg/mL, % growth, replicate 1
[21] = P. falciparum, 120 h, parasite screen 2 μg/mL, % growth, replicate 2
[22] = P. falciparum, 72 h, screen at 2 μg/mL, replicate 1
[23] = P. falciparum, 72 h, screen at 2 μg/mL, replicate 2
[24] = T. gondii, screen at 2 μg/mL, replicate 1
[25] = T. gondii, screen at 2 μg/mL, replicate 2
[26] = P. falciparum, 120 h, screen at 2 μg/mL, replicate 1
[27] = P. falciparum, 120 h, screen at 2 μg/mL, replicate 2

Compound: CCC/C=C/C=C/C1C[C@@H](O)[C@@H](O)C(=O)[C@H]1C=O (stereo partly drawn) [Frequentin]
- Pf_72h_%Growth_Rep1 [1, 4]: 84.65%
- Pf_72h_%Growth_Rep2 [1, 5]: 84.20%
- Tg_72h_%Growth_Rep1 [2, 6]: 198.87%
- Tg_72h_%Growth_Rep2 [2, 7]: 96.89%
- Pf_120h_%Growth_Rep1 [3, 8]: 99.31%
- Pf_120h_%Growth_Rep2 [3, 9]: 94.53%

Compound: CC=C(C)c1c(Cl)c(OC)c(C)c2c1Oc1c(Cl)c(O)c(Cl)c(C)c1C(=O)O2 [BIA-N1157]
- Pf_72h_%Growth_Rep1 [1, 10]: 86.70%
- Pf_72h_%Growth_Rep2 [1, 11]: 91.20%
- Tg_72h_%Growth_Rep1 [2, 12]: 96.79%
- Tg_72h_%Growth_Rep2 [2, 13]: 78.56%
- Pf_120h_%Growth_Rep1 [3, 14]: 89.90%
- Pf_120h_%Growth_Rep2 [3, 15]: 141.00%

Compound: CC(=O)NCCc1c[nH]c2ccccc12 [Acetyltryptamine, N-]
- Pf_72h_%Growth_Rep1 [1, 4]: 83.66%
- Pf_72h_%Growth_Rep2 [1, 5]: 90.45%
- Tg_72h_%Growth_Rep1 [2, 6]: 109.38%
- Tg_72h_%Growth_Rep2 [2, 7]: 85.68%
- Pf_120h_%Growth_Rep1 [3, 8]: 84.03%
- Pf_120h_%Growth_Rep2 [3, 9]: 87.17%

Compound: COC(=O)[C@@]12C(=O)C(C)C(=O)[C@]1(C)C(C)=C[C@H]1[C@]3(C=O)CC[C@H](OC(C)=O)C(C)(C)[C@H]3CC[C@@]12C (stereo partly drawn) [Andrastin A]
- Pf_72h_%Growth_Rep1 [1, 4]: 79.79%
- Pf_72h_%Growth_Rep2 [1, 5]: 84.23%
- Tg_72h_%Growth_Rep1 [2, 6]: 90.21%
- Tg_72h_%Growth_Rep2 [2, 7]: 88.06%
- Pf_120h_%Growth_Rep1 [3, 8]: 133.36%
- Pf_120h_%Growth_Rep2 [3, 9]: 82.36%

Compound: C[C@H]1NC(=O)[C@@H]2CCCCN2C(=O)CN(C)C(=O)CNC(=O)[C@@H]2CCCCN2C(=O)[C@H](NC(=O)c2nc3ccccc3cc2O)[C@@H](C)NC(=O)[C@@H]2CCCCN2C(=O)CN(C)C(=O)CNC(=O)[C@@H]2CCCCN2C(=O)[C@@H]1NC(=O)c1nc2ccccc2cc1O [Quinaldopeptin]
- Pf_72h_%Growth_Rep1 [1, 16]: 9.69%
- Pf_72h_%Growth_Rep2 [1, 17]: 1.67%
- Tg_72h_%Growth_Rep1 [2, 18]: 3.09%
- Tg_72h_%Growth_Rep2 [2, 19]: 0.65%
- Pf_120h_%Growth_Rep1 [3, 20]: 19.16%
- Pf_120h_%Growth_Rep2 [3, 21]: 8.74%

Compound: CCC(=O)[C@@H](C)[C@@H](O)[C@H](C)C[C@@H](C)[C@H]1OC(=O)C[C@@]2(O)CC=C(C)[C@H](O2)/C(C)=C/CCC[C@@H](O[C@H]2C[C@@H](OC(N)=O)[C@H](O)[C@@H](C)O2)/C=C/[C@H](C)C[C@H]1C [Venturicidin A]
- Pf_72h_%Growth_Rep1 [1, 22]: 8.64%
- Pf_72h_%Growth_Rep2 [1, 23]: 1.38%
- Tg_72h_%Growth_Rep1 [2, 24]: -1.24%
- Tg_72h_%Growth_Rep2 [2, 25]: 0.71%
- Pf_120h_%Growth_Rep1 [3, 26]: 19.97%
- Pf_120h_%Growth_Rep2 [3, 27]: -12.87%

Compound: CNc1ccc2oc(C[C@H]3O[C@@]4(CC[C@H]3C)O[C@H]([C@H](C)C(=O)c3ccc[nH]3)[C@H](C)C[C@H]4C)nc2c1C(=O)O [Calcimycin]
- activity at 2 µg/mL ([1]; 3D7, 72 h, P. falciparum, 72 h, screen at 2 μg/mL, replicate 1, read-out: Pf_72h_%Growth_Rep1): 13.1%
- activity at 2 µg/mL ([1]; 3D7, 72 h, P. falciparum, 72 h, screen at 2 μg/mL, replicate 2, read-out: Pf_72h_%Growth_Rep2): 6.23%
- percent parasite growth at 2 µg/mL ([2]; T. gondii, screen at 2 μg/mL, replicate 1, read-out: Tg_72h_%Growth_Rep1): 1.82%
- percent parasite growth at 2 µg/mL ([2]; T. gondii, screen at 2 μg/mL, replicate 2, read-out: Tg_72h_%Growth_Rep2): 1.52%
- activity at 2 µg/mL ([3]; 3D7, 120 h, P. falciparum, 120 h, screen at 2 μg/mL, replicate 1, read-out: Pf_120h_%Growth_Rep1): 11.6%
- activity at 2 µg/mL ([3]; 3D7, 120 h, P. falciparum, 120 h, screen at 2 μg/mL, replicate 2, read-out: Pf_120h_%Growth_Rep2): 3.04%

Compound: CC(C)=CC1CC(C)C2(CCC3(C)CC4C(C(=O)CC4(C)O)C(C=O)=CCC32)O1 (stereo not drawn) [BIA-O1063]
- Pf_72h_%Growth_Rep1 [1, 10]: 4.64%
- Pf_72h_%Growth_Rep2 [1, 11]: 5.89%
- Tg_72h_%Growth_Rep1 [2, 12]: 5.87%
- Tg_72h_%Growth_Rep2 [2, 13]: 0.78%
- Pf_120h_%Growth_Rep1 [3, 14]: 10.48%
- Pf_120h_%Growth_Rep2 [3, 15]: 11.00%

Compound: CC(=O)C1C(C)=CC(=O)c2c1c(-c1c3c(c(O)c4c(O)cccc14)C(=O)CC(C)(O)C3C(C)=O)c1cccc(O)c1c2O (stereo not drawn) [Setomimycin]
- Pf_72h_%Growth_Rep1 [1, 16]: 8.25%
- Pf_72h_%Growth_Rep2 [1, 17]: 3.46%
- Tg_72h_%Growth_Rep1 [2, 18]: 70.47%
- Tg_72h_%Growth_Rep2 [2, 19]: 40.70%
- Pf_120h_%Growth_Rep1 [3, 20]: 7.52%
- Pf_120h_%Growth_Rep2 [3, 21]: 6.30%

Compound: COc1oc(C2C/C(=C/C(C)=C/C(C)=C/C(C)=C/c3ccc([N+](=O)[O-])cc3)CO2)c(C)c(=O)c1C (stereo not drawn) [BIA-N1058]
- Pf_72h_%Growth_Rep1 [1, 10]: 9.38%
- Pf_72h_%Growth_Rep2 [1, 11]: 10.75%
- Tg_72h_%Growth_Rep1 [2, 12]: 44.53%
- Tg_72h_%Growth_Rep2 [2, 13]: 72.88%
- Pf_120h_%Growth_Rep1 [3, 14]: 17.59%
- Pf_120h_%Growth_Rep2 [3, 15]: 18.76%

Compound: COC12c3c(C)cc(O)c4c(=O)occ(c34)C(=O)C1C13COC(=O)c4c(O)cc(C)c(c41)C(=O)C2C3OC(C)=O (stereo not drawn) [Duclauxin]
- Pf_72h_%Growth_Rep1 [1, 4]: 87.43%
- Pf_72h_%Growth_Rep2 [1, 5]: 79.39%
- Tg_72h_%Growth_Rep1 [2, 6]: 149.61%
- Tg_72h_%Growth_Rep2 [2, 7]: 92.65%
- Pf_120h_%Growth_Rep1 [3, 8]: 87.90%
- Pf_120h_%Growth_Rep2 [3, 9]: 120.62%

Compound: C=CCNC1=C2C[C@@H](C)C[C@H](OC)[C@H](O)[C@@H](C)/C=C(\C)[C@H](OC(N)=O)[C@@H](OC)/C=C\C=C(/C)C(=O)NC(=CC1=O)C2=O [Allylamino-17-demethoxygeldanamycin, 17-]
- Pf_72h_%Growth_Rep1 [1, 4]: 14.05%
- Pf_72h_%Growth_Rep2 [1, 5]: 5.13%
- Tg_72h_%Growth_Rep1 [2, 6]: -1.02%
- Tg_72h_%Growth_Rep2 [2, 7]: -0.21%
- Pf_120h_%Growth_Rep1 [3, 8]: 19.67%
- Pf_120h_%Growth_Rep2 [3, 9]: 7.18%

Compound: CC1=C[C@H]2C(=O)O[C@H]3C[C@@H](C/C=C(/C)[C@@H](O)[C@@H](C)/C=C\C=C4CO[C@H]([C@@H]1O)[C@@]42O)O[C@@]1(C=C[C@H](C)[C@@H](C2CCCCC2)O1)C3 [Doramectin aglycone]
- Pf_72h_%Growth_Rep1 [1, 4]: 80.09%
- Pf_72h_%Growth_Rep2 [1, 5]: 78.66%
- Tg_72h_%Growth_Rep1 [2, 6]: 167.81%
- Tg_72h_%Growth_Rep2 [2, 7]: 107.39%
- Pf_120h_%Growth_Rep1 [3, 8]: 86.97%
- Pf_120h_%Growth_Rep2 [3, 9]: 81.83%

Compound: Cc1c2c(c(O)c3c(O)cccc13)C(=O)O[C@@H]2[C@@H]1[C@H](O)C(=O)C(C(N)=O)=C(O)[C@H]1N(C)C [Apooxytetracycline, alpha-]
- Pf_72h_%Growth_Rep1 [1, 4]: 86.78%
- Pf_72h_%Growth_Rep2 [1, 5]: 89.73%
- Tg_72h_%Growth_Rep1 [2, 6]: 81.07%
- Tg_72h_%Growth_Rep2 [2, 7]: 111.56%
- Pf_120h_%Growth_Rep1 [3, 8]: 91.28%
- Pf_120h_%Growth_Rep2 [3, 9]: 90.91%

Compound: O=C1NCc2nc3ccccc3c(=O)n2-c2ccccc21 [Sclerotigenin]
- activity at 2 µg/mL ([1]; 3D7, P. falciparum, 72 h, parasite screen 2 μg/mL, % growth, replicate 1, read-out: Pf_72h_%Growth_Rep1): 90.7%
- activity at 2 µg/mL ([1]; 3D7, P. falciparum, 72 h, parasite screen 2 μg/mL, % growth, replicate 2, read-out: Pf_72h_%Growth_Rep2): 89.5%
- percent parasite growth at 2 µg/mL ([2]; T. gondii, parasite screen 2 μg/mL, % growth, replicate 1, read-out: Tg_72h_%Growth_Rep1): 82%
- percent parasite growth at 2 µg/mL ([2]; T. gondii, parasite screen 2 μg/mL, % growth, replicate 2, read-out: Tg_72h_%Growth_Rep2): 103%
- activity at 2 µg/mL ([3]; 3D7, P. falciparum, 120 h, parasite screen 2 μg/mL, % growth, replicate 1, read-out: Pf_120h_%Growth_Rep1): 169%
- activity at 2 µg/mL ([3]; 3D7, P. falciparum, 120 h, parasite screen 2 μg/mL, % growth, replicate 2, read-out: Pf_120h_%Growth_Rep2): 96.5%

Compound: C[C@H]1CCC/C=C/C(=O)c2c(O)cc(O)cc2CC(=O)O1 [Dehydrocurvularin, 10,11-]
- Pf_72h_%Growth_Rep1 [1, 22]: 4.73%
- Pf_72h_%Growth_Rep2 [1, 23]: 1.02%
- Tg_72h_%Growth_Rep1 [2, 24]: 4.20%
- Tg_72h_%Growth_Rep2 [2, 25]: 2.39%
- Pf_120h_%Growth_Rep1 [3, 26]: 13.56%
- Pf_120h_%Growth_Rep2 [3, 27]: 16.52%
